One assay addresses IRAK4 enzyme (Homo sapiens (Human), UniProt Q9NWZ3). As to the kind of experiment: biochemical. The assay is classed as biochemical. As to conditions: IRAK4 enzyme, TR-FRET (HTRF), 500 μM ATP. A general note: In TR-FRET formats the signal depends on donor and acceptor labels being close together.
In the next assay the test system is TNFα. As to the kind of experiment: cells. Type of assay: cell-based, human. The following applies: Homo sapiens, Monocyte, LPS-stimulated human monocytes, TNFα content; read-out: EC50 TNF.

A value given as a limit tells only on which side of the number the result lay.

For 25 compounds, IC50 and EC50 results are on record in patent publication US10336762B2 (priority 2017, dated 2019).

IRAK4 enzyme, sequence (Q9NWZ3 whole entry): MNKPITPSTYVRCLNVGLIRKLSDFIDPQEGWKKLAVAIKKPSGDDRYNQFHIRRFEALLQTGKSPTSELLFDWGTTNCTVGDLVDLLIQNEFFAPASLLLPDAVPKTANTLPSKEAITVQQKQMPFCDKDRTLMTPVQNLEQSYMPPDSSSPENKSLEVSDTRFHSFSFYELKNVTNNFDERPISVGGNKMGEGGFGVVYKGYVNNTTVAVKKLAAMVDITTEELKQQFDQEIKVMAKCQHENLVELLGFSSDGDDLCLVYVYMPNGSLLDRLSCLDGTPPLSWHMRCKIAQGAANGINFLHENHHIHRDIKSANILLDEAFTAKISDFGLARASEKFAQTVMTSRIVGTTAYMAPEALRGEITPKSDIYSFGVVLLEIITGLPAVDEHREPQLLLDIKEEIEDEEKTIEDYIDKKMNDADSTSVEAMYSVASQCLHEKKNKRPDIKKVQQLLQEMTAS

Broadly, the IC50 is the concentration that gives 50% inhibition. A lower IC50 goes with greater potency. Usually EC50 stands for the concentration that produces a half-maximal response. Consider `CC(C)(O)[C@H](F)CNC(=O)c1cnc(-c2ccc3cc(C#N)cnn23)cc1N[C@]1(C)CC[C@H](O)CC1` [Example 432, 6-(3-cyanopyrrolo[1,2-b]pyridazin-7-yl)-N-((R)-2-fluoro-3-hydroxy-3-methylbutyl)-4-(((1s,4S)-4-hydroxy-1-methylcyclohexyl)amino) nicotinamide], for which the half-inhibitory concentration (IC50) on IRAK4 enzyme is less than 1 nM. Further, the EC50 with TNFα was 37 nM.
On IRAK4 enzyme, `CC(C)(O)[C@H](F)CNC(=O)c1cnc(-c2ccc3cc(C#N)cnn23)cc1N[C@]1(C)C[C@H](O)C1` [Example 433, 6-(3-cyanopyrrolo[1,2-b]pyridazin-7-yl)-N-((R)-2-fluoro-3-hydroxy-3-methylbutyl)-4-(((1s,3S)-3-hydroxy-1-methylcyclobutyl)amino) nicotinamide] yielded an IC50 of less than 1 nM. Besides, the EC50 with TNFα was found to be 47 nM.
With `CC(C)(O)[C@H](F)CNC(=O)c1cnc(-c2ccc3cc(C#N)cnn23)cc1Nc1ccc2c(c1)CNC2=O` [Example 434, (R)-6-(3-cyanopyrrolo[1,2-b]pyridazin-7-yl)-N-(2-fluoro-3-hydroxy-3-methylbutyl)-4-((1-oxoisoindolin-5-yl)amino)nicotinamide], the concentration for half-maximal inhibition (IC50) against IRAK4 enzyme is less than 1 nM. Besides, in the assay with TNFα, the EC50 amounted to 107 nM.
`CC(C)(O)[C@H](F)CNC(=O)c1cnc(-c2ccc3cc(C#N)cnn23)cc1Nc1ccc(O)nc1` [Example 435, (R)-6-(3-cyanopyrrolo[1,2-b]pyridazin-7-yl)-N-(2-fluoro-3-hydroxy-3-methylbutyl)-4-((6-hydroxypyridin-3-yl)amino)nicotinamide] returned a half-inhibitory concentration (IC50) against IRAK4 enzyme of 10000 nM. Moreover, the EC50 with TNFα is more than 10000 nM.
Regarding `CC(C)(O)[C@H](F)CNC(=O)c1cnc(-c2ccc3cc(C#N)cnn23)cc1NCCCCS(C)(=O)=O` [Example 438, (R)-6-(3-cyanopyrrolo[1,2-b]pyridazin-7-yl)-N-(2-fluoro-3-hydroxy-3-methylbutyl)-4-((4-(methylsulfonyl)butyl)amino)nicotinamide], it took 1 nM to reach half-maximal inhibition against IRAK4 enzyme (IC50). In addition, the EC50 with TNFα turned out to be 135 nM.
The matching figures for `CCS(=O)(=O)CCCNc1cc(-c2ccc3cc(C#N)cnn23)ncc1C(=O)NC[C@@H](F)C(C)(C)O` [Example 439, (R)-6-(3-cyanopyrrolo[1,2-b]pyridazin-7-yl)-4-((3-(ethylsulfonyl)propyl)amino)-N-(2-fluoro-3-hydroxy-3-methylbutyl) nicotinamide]: less than 1 nM and 40 nM.
`CC(CCS(C)(=O)=O)Nc1cc(-c2ccc3cc(C#N)cnn23)ncc1C(=O)NC[C@@H](F)C(C)(C)O` (stereo partly drawn) [Example 440, 6-(3-cyanopyrrolo[1,2-b]pyridazin-7-yl)-N-((R)-2-fluoro-3-hydroxy-3-methylbutyl)-4-((4-(methylsulfonyl)butan-2-yl)amino)nicotinamide]: the half-inhibitory concentration (IC50) at IRAK4 enzyme was 2 nM. In addition, the concentration for a half-maximal effect (EC50) with TNFα was determined as 715 nM.
For `Cn1ccc(Nc2cc(-c3ccc4cc(C#N)cnn34)ncc2C(=O)NC[C@@H](F)C(C)(C)O)cc1=O` [Example 442, (R)-6-(3-cyanopyrrolo[1,2-b]pyridazin-7-yl)-N-(2-fluoro-3-hydroxy-3-methylbutyl)-4-((1-methyl-2-oxo-1,2-dihydropyridin-4-yl)amino)nicotinamide], the midpoint of inhibition at IRAK4 enzyme, the IC50, lay at 1 nM. The EC50 with TNFα is 104 nM.
In turn, `CC(C)(O)[C@H](F)CNC(=O)c1cnc(-c2ccc3cc(C#N)cnn23)cc1N[C@H]1C[C@H](S(C)(=O)=O)C1` [Example 443, 6-(3-cyanopyrrolo[1,2-b]pyridazin-7-yl)-N-((R)-2-fluoro-3-hydroxy-3-methylbutyl)-4-(((1r,3R)-3-(methylsulfonyl)cyclobutyl)amino)nicotinamide] had an IC50 against IRAK4 enzyme of 1 nM. In addition, the EC50 in the assay on TNFα is 110 nM.
Turning to `CC(C)(O)[C@H](F)CNC(=O)c1cnc(-c2ccc3cc(C#N)cnn23)cc1N[C@H]1CC[C@](C)(O)CC1` [Example 445, 6-(3-cyanopyrrolo[1,2-b]pyridazin-7-yl)-N-((R)-2-fluoro-3-hydroxy-3-methylbutyl)-4-(((1r,4R)-4-hydroxy-4-methylcyclo-hexyl)amino)nicotinamide], at IRAK4 enzyme, the IC50 amounted to 1 nM. The concentration giving a half-maximal response (EC50) with TNFα worked out at 59 nM.
Consider `CC(C)(O)[C@H](F)CNC(=O)c1cnc(-c2ccc3cc(C#N)cnn23)cc1N[C@H]1C[C@](C)(O)C1` [Example 446, 6-(3-cyanopyrrolo[1,2-b]pyridazin-7-yl)-N-((R)-2-fluoro-3-hydroxy-3-methylbutyl)-4-(((1r,3R)-3-hydroxy-3-methylcyclobutyl)amino) nicotinamide], for which the half-maximal inhibitory concentration (IC50) at IRAK4 enzyme amounted to 1 nM. For the same compound, the EC50 in the assay with TNFα was 63 nM.
For the compound `CC(=O)N1CC2(CC(Nc3cc(-c4ccc5cc(C#N)cnn45)ncc3C(=O)NC[C@@H](F)C(C)(C)O)C2)C1` [Example 447, (R)-4-((2-acetyl-2-azaspiro[3.3]heptan-6-yl)amino)-6-(3-cyano-pyrrolo[1,2-b]pyridazin-7-yl)-N-(2-fluoro-3-hydroxy-3-methylbutyl) nicotinamide], at IRAK4 enzyme, the IC50 worked out at 5 nM. In addition, in the assay on TNFα, the EC50 came out at 286 nM.
`CC(C)(C)OC(=O)N1CC2(CC(Nc3cc(-c4ccc5cc(C#N)cnn45)ncc3C(=O)NC[C@@H](F)C(C)(C)O)C2)C1` [Example 448, (R)-tert-butyl 6-((2-(3-cyanopyrrolo[1,2-b]pyridazin-7-yl)-5-((2-fluoro-3-hydroxy-3-methylbutyl)carbamoyl)pyridin-4-yl)amino)-2-azaspiro[3.3]heptane-2-carboxylate] came in with an IC50 on IRAK4 enzyme of 32 nM. Moreover, the concentration for a half-maximal effect (EC50) in the assay on TNFα amounted to 2040 nM.
In the same order, the values of `CC(=O)N1CC(Nc2cc(-c3ccc4cc(C#N)cnn34)ncc2C(=O)NC[C@@H](F)C(C)(C)O)C1` [Example 449, (R)-4-((1-acetylazetidin-3-yl)amino)-6-(3-cyano-pyrrolo[1,2-b]pyridazin-7-yl)-N-(2-fluoro-3-hydroxy-3-methylbutyl)nicotinamide] are 3 nM and 361 nM.
Regarding `CC(C)(O)[C@H](F)CNC(=O)c1cnc(-c2ccc3cc(C#N)cnn23)cc1N[C@H]1C[C@@](C)(O)C1` [Example 450, 6-(3-cyanopyrrolo[1,2-b]pyridazin-7-yl)-N-((R)-2-fluoro-3-hydroxy-3-methylbutyl)-4-(((1s,3S)-3-hydroxy-3-methylcyclo-butyl)amino)nicotinamide], the IC50 against IRAK4 enzyme was less than 1 nM. The 50% effective concentration (EC50) with TNFα was 44 nM.
`CNC(=O)c1ccc(Nc2cc(-c3ccc4cc(C#N)cnn34)ncc2C(=O)NCC#N)cc1` [Example 451, N-(cyanomethyl)-6-(3-cyanopyrrolo[1,2-b]pyridazin-7-yl)-4-((4-(methylcarbamoyl)phenyl)amino) nicotinamide] came in with an IC50 on IRAK4 enzyme of less than 1 nM. Also, in the assay with TNFα, the half-maximal effective concentration (EC50) was 30 nM.
Take `CC1(O)CC2(CC(Nc3cc(-c4ccc5cc(C#N)cnn45)ncc3C(=O)NCC#N)C2)C1` (centres unmarked) [Example 452, N-(cyanomethyl)-6-(3-cyanopyrrolo[1,2-b]pyridazin-7-yl)-4-((6-hydroxy-6-methyl-spiro[3.3]heptan-2-yl)amino)nicotinamide]: at IRAK4 enzyme, the IC50 was less than 1 nM. In the assay on TNFα, the 50% effective concentration (EC50) was 112 nM.
On IRAK4 enzyme, `N#CCNC(=O)c1cnc(-c2ccc3cc(C#N)cnn23)cc1NC1CC2(CC(O)C2)C1` (centres unmarked) [Example 453, N-(cyanomethyl)-6-(3-cyanopyrrolo[1,2-b]pyridazin-7-yl)-4-((6-hydroxyspiro[3.3]heptan-2-yl)amino) nicotinamide] gave an IC50 of less than 1 nM. Moreover, the EC50 in the assay with TNFα was determined as 68 nM.
Compound `N#CCNC(=O)c1cnc(-c2ccc3cc(C#N)cnn23)cc1NC12CCC(C(=O)NC3COC3)(CC1)CC2` [Example 454, N-(cyanomethyl)-6-(3-cyanopyrrolo[1,2-b]pyridazin-7-yl)-4-((4-(oxetan-3-ylcarbamoyl)bicyclo[2.2.2]octan-1-yl)amino)nicotinamide] displayed an IC50 at IRAK4 enzyme of less than 1 nM. In addition, the concentration for a half-maximal effect (EC50) in the assay on TNFα amounted to 207 nM.
On to `COC(=O)N[C@H]1C[C@H](Nc2cc(-c3ccc4cc(C#N)cnn34)ncc2C(=O)NC[C@@H](F)C(C)(C)O)C1` [Example 455, methyl ((1R,3r)-3-((2-(3-cyanopyrrolo[1,2-b]pyridazin-7-yl)-5-(((R)-2-fluoro-3-hydroxy-3-methylbutyl)carbamoyl)pyridin-4-yl)amino)cyclobutyl)carbamate], for which, on IRAK4 enzyme, it took 1 nM to reach half-maximal inhibition (IC50). For the same compound, the EC50 in the assay with TNFα was found to be 118 nM.
The matching figures for `CC(=O)N[C@H]1C[C@H](Nc2cc(-c3ccc4cc(C#N)cnn34)ncc2C(=O)NC[C@@H](F)C(C)(C)O)C1` [Example 456, 4-(((1r,3R)-3-acetamidocyclobutyl)amino)-6-(3-cyanopyrrolo[1,2-b]pyridazin-7-yl)-N-((R)-2-fluoro-3-hydroxy-3-methylbutyl)nicotinamide]: 1 nM and 394 nM.
`COC(=O)N[C@H]1C[C@@H](Nc2cc(-c3ccc4cc(C#N)cnn34)ncc2C(=O)NC[C@@H](F)C(C)(C)O)C1` [Example 457, methyl ((1S,3s)-3-((2-(3-cyanopyrrolo[1,2-b]pyridazin-7-yl)-5-(((R)-2-fluoro-3-hydroxy-3-methylbutyl)carbamoyl)pyridin-4-yl)amino)cyclo-butyl)carbamate] displayed an IC50 against IRAK4 enzyme of 3 nM. Besides, the concentration for a half-maximal effect (EC50) in the assay on TNFα was 370 nM.
`CC(=O)N[C@H]1C[C@@H](Nc2cc(-c3ccc4cc(C#N)cnn34)ncc2C(=O)NC[C@@H](F)C(C)(C)O)C1` [Example 458, 4-(((1s,3S)-3-acetamidocyclobutyl)amino)-6-(3-cyano-pyrrolo[1,2-b]pyridazin-7-yl)-N-((R)-2-fluoro-3-hydroxy-3-methylbutyl)nicotinamide] displayed an IC50 against IRAK4 enzyme of 3 nM. Also, the EC50 in the assay with TNFα is 2470 nM.
As for `N#CCNC(=O)c1cnc(-c2ccc3cc(C#N)cnn23)cc1N[C@H]1CCC[C@@H](O)C1` [Example 459, N-(cyanomethyl)-6-(3-cyanopyrrolo[1,2-b]pyridazin-7-yl)-4-(((1S,3R)-3-hydroxycyclohexyl)amino) nicotinamide], the midpoint of inhibition on IRAK4 enzyme, the IC50, lay at 1 nM. Further, the EC50 in the assay on TNFα came out at 125 nM.
The matching figures for `N#CCNC(=O)c1cnc(-c2ccc3cc(C#N)cnn23)cc1NC1COC1` [Example 460, N-(cyanomethyl)-6-(3-cyanopyrrolo[1,2-b]pyridazin-7-yl)-4-(oxetan-3-ylamino) nicotinamide]: less than 1 nM and 71 nM.
